Structures can show the parent of a compound that is named as a salt.
Columns and labels:
[1] = system: Human being; settings: Oral; cited from earlier work
[2] = system: Mouse; settings: Intraperitoneal; cited from earlier work
[3] = Measurement of hygroscopicity; assay type: physicochemical; settings: 95% RH, 25° C.
[4] = system: male ICR mice; test: Test of drop in blood glucose after meal (OGTT with sucrose load); assay type: in vivo; settings: for effect of drop in blood glucose compared to G8 (excipient control): 20 minutes after administration of sucrose
[5] = system: diabetes mellitus induced experimental animal; test: Effect of drop in blood glucose level in diabetes mellitus induced (alloxan) rats; assay type: in vivo; settings: for glucose concentration in blood: 0.05 mg as metformin, peritoneally
From the text: This test supports the effect of the present invention.

[6] = 100 mg/kg oral, 0 min after sucrose 2 g/kg
[7] = 100 mg/kg oral, 40 min after sucrose 2 g/kg
[8] = 100 mg/kg oral, 60 min after sucrose 2 g/kg
[9] = 100 mg/kg oral, 90 min after sucrose 2 g/kg
[10] = 100 mg/kg oral, 120 min after sucrose 2 g/kg
[11] = 100 mg/kg oral, 240 min after sucrose 2 g/kg
[12] = 200 mg/kg oral, 0 min after sucrose 2 g/kg
[13] = 200 mg/kg oral, 20 min after sucrose 2 g/kg
[14] = 200 mg/kg oral, 40 min after sucrose 2 g/kg
[15] = 200 mg/kg oral, 60 min after sucrose 2 g/kg
[16] = 200 mg/kg oral, 90 min after sucrose 2 g/kg
[17] = 200 mg/kg oral, 120 min after sucrose 2 g/kg
[18] = 200 mg/kg oral, 240 min after sucrose 2 g/kg
[19] = 400 mg/kg oral, 0 min after sucrose 2 g/kg
[20] = 400 mg/kg oral, 20 min after sucrose 2 g/kg
[21] = 400 mg/kg oral, 40 min after sucrose 2 g/kg
[22] = 400 mg/kg oral, 60 min after sucrose 2 g/kg
[23] = 400 mg/kg oral, 90 min after sucrose 2 g/kg
[24] = 400 mg/kg oral, 120 min after sucrose 2 g/kg
[25] = 400 mg/kg oral, 240 min after sucrose 2 g/kg

Question: Which “Dose (TDLo)” value [1] does the source give for `CC(=O)O` [Acetic acid] here?
Answer: 1,470 μg/kg

Question: Which “Dose (LD50)” value [2] does the source give for `Cl` [Hydrochloric acid] here?
Answer: 40 mg/kg

Question: With `CC(=O)O.CN(C)C(=N)NC(=N)N` [Metformin acetate, N,N-dimethyl imidodicarbonimidic diamide acetate] as the compound, how does the “hygroscopicity compared with metformin hydrochloride” value [3] read?
Answer: lower than that of the metformin hydrochloride

Question: What about the Hygroscopicity ([3]; 1 day) of the same compound?
Answer: 0.35%

Question: What about the Hygroscopicity ([3]; 2 days) of the same compound?
Answer: 0.93%

Question: What about the Hygroscopicity ([3]; 3 days) of the same compound?
Answer: 1.37%

Question: And the Hygroscopicity ([3]; 6 days)?
Answer: 11.21%

Question: And the Hygroscopicity ([3]; 9 days)?
Answer: 23.32%

Question: What about the “effect of drop in blood glucose” value ([4]; 100 mg/kg (G2), 240 minutes) of the same compound?
Answer: effect of drop in blood glucose could be observed

Question: And the “glucose concentration in blood” value [4, 6]?
Answer: 101.63 ± 4.94 mg/dL

Question: What about the “glucose concentration in blood” value [4, 7] of the same compound?
Answer: 212.00 ± 15.68 mg/dL

Question: And the “glucose concentration in blood” value [4, 8]?
Answer: 170.75 ± 17.38 mg/dL

Question: And the “glucose concentration in blood” value [4, 9]?
Answer: 134.50 ± 15.64 mg/dL

Question: What about the “glucose concentration in blood” value [4, 10] of the same compound?
Answer: 106.63 ± 10.44 mg/dL

Question: And the “glucose concentration in blood” value [4, 11]?
Answer: 63.63 ± 4.94 mg/dL

Question: And the “effect of drop in blood glucose” value ([4]; 200 mg/kg (G3), 120 minutes)?
Answer: effect of drop in blood glucose could be observed

Question: What about the “effect of drop in blood glucose” value ([4]; 200 mg/kg (G3), 240 minutes) of the same compound?
Answer: effect of drop in blood glucose could be observed

Question: And the “effect of drop in blood glucose compared to G8 (excipient control)” value (“effect … compared to G8 (excipient control)” for short) ([4]; 200 mg/kg (G3, G6))?
Answer: effect of drop in blood glucose could be observed

Question: And the “glucose concentration in blood” value [4, 12]?
Answer: 101.63 ± 4.58 mg/dL

Question: And the “glucose concentration in blood” value [4, 13]?
Answer: 213.13 ± 11.36 mg/dL

Question: And the “glucose concentration in blood” value [4, 14]?
Answer: 201.00 ± 21.78 mg/dL

Question: And the “glucose concentration in blood” value [4, 15]?
Answer: 165.75 ± 15.91 mg/dL

Question: And the “glucose concentration in blood” value [4, 16]?
Answer: 129.63 ± 8.08 mg/dL

Question: And the “glucose concentration in blood” value [4, 17]?
Answer: 106.38 ± 4.07 mg/dL

Question: And the “glucose concentration in blood” value [4, 18]?
Answer: 80.00 ± 3.73 mg/dL

Question: And the “effect … compared to G8 (excipient control)” value ([4]; 400 mg/kg (G4, G7))?
Answer: effect of drop in blood glucose could be observed

Question: What about the “glucose concentration in blood” value [4, 19] of the same compound?
Answer: 104.13 ± 6.53 mg/dL

Question: What about the “glucose concentration in blood” value [4, 20] of the same compound?
Answer: 190.25 ± 16.05 mg/dL

Question: And the “glucose concentration in blood” value [4, 21]?
Answer: 169.63 ± 21.19 mg/dL

Question: What about the “glucose concentration in blood” value [4, 22] of the same compound?
Answer: 141.50 ± 18.24 mg/dL

Question: And the “glucose concentration in blood” value [4, 23]?
Answer: 106.38 ± 13.75 mg/dL

Question: What about the “glucose concentration in blood” value [4, 24] of the same compound?
Answer: 86.25 ± 11.25 mg/dL

Question: And the “glucose concentration in blood” value [4, 25]?
Answer: 69.25 ± 7.96 mg/dL

Question: And the “effect of drop in blood glucose compared with metformin hydrochloride” value ([4]; 200 and 400 mg/kg dosage group, 20 to 60 minutes after administration of sucrose)?
Answer: higher effect of drop in blood glucose than that of the metformin hydrochloride

Question: What about the “effect of drop in blood glucose after meal compared with metformin hydrochloride” value ([4]; overall inference from Table 11) of the same compound?
Answer: more excellent than that of the metformin hydrochloride

Question: And the “decrease of glucose concentration versus control group” value ([5]; 10 hours after administration)?
Answer: about 7.5 mmol/L

Question: And the “effect of drop in blood glucose compared with metformin hydrochloride” value ([5]; alloxan rats)?
Answer: more excellent than that of metformin hydrochloride

Question: What about the “glucose concentration in blood” value ([5]; alloxan rats, 0 hours) of the same compound?
Answer: 13.8 mmol/L

Question: And the “glucose concentration in blood” value ([5]; alloxan rats, 2 hours)?
Answer: 6.4 mmol/L

Question: What about the “glucose concentration in blood” value ([5]; alloxan rats, 4 hours) of the same compound?
Answer: 7.5 mmol/L

Question: And the “glucose concentration in blood” value ([5]; alloxan rats, 6 hours)?
Answer: 6.8 mmol/L

Question: What about the “glucose concentration in blood” value ([5]; alloxan rats, 8 hours) of the same compound?
Answer: 5.9 mmol/L

Question: What about the “glucose concentration in blood” value ([5]; alloxan rats, 10 hours) of the same compound?
Answer: 6.9 mmol/L

Question: For `CN(C)C(=N)N=C(N)N` [Metformin hydrochloride, metformin hydrochloride, reference compound], which Hygroscopicity ([3]; 1 day) is on record?
Answer: 6.29%

Question: And the Hygroscopicity ([3]; 2 days)?
Answer: 11.86%

Question: And the Hygroscopicity ([3]; 3 days)?
Answer: 23.3%

Question: What about the Hygroscopicity ([3]; 6 days) of the same compound?
Answer: 60.33%

Question: What about the Hygroscopicity ([3]; 9 days) of the same compound?
Answer: 68.78%

Question: What about the “glucose concentration in blood” value [4, 6] of the same compound?
Answer: 104.00 ± 6.53 mg/dL

Question: What about the “glucose concentration in blood” value ([4]; 100 mg/kg oral, 20 min after sucrose 2 g/kg) of the same compound?
Answer: 246.00 ± 16.70 mg/dL

Question: And the “glucose concentration in blood” value [4, 7]?
Answer: 194.38 ± 8.02 mg/dL

Question: And the “glucose concentration in blood” value [4, 8]?
Answer: 151.50 ± 5.45 mg/dL

Question: And the “glucose concentration in blood” value [4, 9]?
Answer: 122.38 ± 4.69 mg/dL

Question: And the “glucose concentration in blood” value [4, 10]?
Answer: 111.75 ± 6.45 mg/dL

Question: And the “glucose concentration in blood” value [4, 11]?
Answer: 83.63 ± 3.49 mg/dL

Question: And the “effect … compared to G8 (excipient control)” value ([4]; 200 mg/kg (G3, G6))?
Answer: effect of drop in blood glucose could be observed

Question: What about the “glucose concentration in blood” value [4, 12] of the same compound?
Answer: 107.13 ± 2.84 mg/dL

Question: And the “glucose concentration in blood” value [4, 13]?
Answer: 227.50 ± 20.57 mg/dL

Question: What about the “glucose concentration in blood” value [4, 14] of the same compound?
Answer: 187.25 ± 15.16 mg/dL

Question: And the “glucose concentration in blood” value [4, 15]?
Answer: 147.25 ± 9.89 mg/dL

Question: What about the “glucose concentration in blood” value [4, 16] of the same compound?
Answer: 121.25 ± 8.15 mg/dL

Question: What about the “glucose concentration in blood” value [4, 17] of the same compound?
Answer: 106.75 ± 5.65 mg/dL

Question: And the “glucose concentration in blood” value [4, 18]?
Answer: 87.13 ± 4.50 mg/dL

Question: What about the “effect … compared to G8 (excipient control)” value ([4]; 400 mg/kg (G4, G7)) of the same compound?
Answer: effect of drop in blood glucose could be observed

Question: And the “glucose concentration in blood” value [4, 19]?
Answer: 104.75 ± 3.98 mg/dL

Question: What about the “glucose concentration in blood” value [4, 20] of the same compound?
Answer: 187.38 ± 10.32 mg/dL

Question: And the “glucose concentration in blood” value [4, 21]?
Answer: 167.63 ± 7.04 mg/dL

Question: What about the “glucose concentration in blood” value [4, 22] of the same compound?
Answer: 135.63 ± 5.53 mg/dL

Question: What about the “glucose concentration in blood” value [4, 23] of the same compound?
Answer: 110.50 ± 4.78 mg/dL

Question: And the “glucose concentration in blood” value [4, 24]?
Answer: 87.88 ± 9.90 mg/dL

Question: What about the “glucose concentration in blood” value [4, 25] of the same compound?
Answer: 64.38 ± 7.69 mg/dL

Question: What about the “glucose concentration in blood” value ([5]; alloxan rats, 0 hours) of the same compound?
Answer: 13.8 mmol/L

Question: And the “glucose concentration in blood” value ([5]; alloxan rats, 2 hours)?
Answer: 7.8 mmol/L

Question: What about the “glucose concentration in blood” value ([5]; alloxan rats, 4 hours) of the same compound?
Answer: 6.4 mmol/L

Question: And the “glucose concentration in blood” value ([5]; alloxan rats, 6 hours)?
Answer: 8.6 mmol/L

Question: And the “glucose concentration in blood” value ([5]; alloxan rats, 8 hours)?
Answer: 7.9 mmol/L

Question: What about the “glucose concentration in blood” value ([5]; alloxan rats, 10 hours) of the same compound?
Answer: 9.4 mmol/L

Source: patent US8541474B2 (Hanall Biopharma Co., Ltd., priority 2007, dated 2013)
